Test results published in US20240115549A1, “TREATMENT OF MENTAL DISORDERS” (GH Research Ireland Limited, priority 2022, published 2024).
“And” between values parts separate entries of the source, which are not always exact repeats. Equal values may be shown once. “Also recorded” adds a separate entry of the source.

Tested on: patients with postpartum depression (PPD)
Assay: Clinical trial of inhaled 5-MeO-DMT in patients with postpartum depression
Type: in vivo, human
Conditions: individual PPD patient
Description: The single-arm, open-label clinical trial will involve 15 adult female patients with clinically diagnosed postpartum depression (PPD).
The second dose (12 mg) will only be administered if: • a. A peak experience (total score of 275) has not been achieved following the 6 mg dose, and • b. The 6 mg dose was safe and well-tolerated according to the investigator, • c. Any psychoactive effects (PsE) of the prior dose have subsided, and • d. Pre-dose vital parameters and forced expiratory volume in one second (FEV1) are in normal range, or if outside of the normal range, are not clinically significant according to the investigator. • 3. Similarly, a third dose (18 mg) will only be administered if: • a. A peak experience (total score of 275) has not been achieved following the 12 mg dose, and • b. The 12 mg dose was safe and well-tolerated according to the investigator, and • c. Any PsE of the prior dose have subsided, and • d. Pre-dose vital parameters and forced expiratory volume in one second (FEV1) are in normal range, or if outside of the normal range, are not clinically significant according to the investigator.
The patients will be assessed for a peak psychedelic experience (based on a patient-scored visual analogue scale, the PE scale), sedation, and other endpoints after dosing. Follow-up visits are planned for Day 1, and Day 7 after the dosing day.
The following criteria must be met by all patients considered for clinical trial participation: • 1. Is female and in the age range between 18 and 45 years (inclusive) at screening. • 2. Has a body mass index (BMI) in the range of 18.5 and 35 kg/m^2 (inclusive) at screening. • 3. Meets the trial criteria for PPD as assessed by a trial psychiatrist or registered psychologist: • a. Diagnosis of Major Depressive Disorder without psychotic features, confirmed by the Mini-International Neuropsychiatric Interview (MINI), with peri-partum onset that began no earlier than gestation and no later than the first 4 weeks postpartum. • b. Has a Montgomery-Åsberg Depression Rating Scale (MADRS) total score of equal to or greater than 28 at screening and pre-dose on Day 0. • 6. […] Patients must have a negative pregnancy test at screening and on the pre-test day (Day −1). • 5. Is willing to delay start of other antidepressant or anxiety medication until after the end of the trial at Day 7 and agrees to keep any psychotherapy unchanged during the trial.
A potential patient who meets any of the following key exclusion criteria will be excluded from participation in this trial: • 1. Has, based on history, psychiatric assessment, and evaluation of the MINI, a current or prior diagnosis of bipolar disorder, a manic or hypomanic episode, a psychotic disorder, Major Depressive Disorder (MDD) or other mood disorder with psychotic features, obsessive compulsive disorder, post-traumatic stress disorder (PTSD), autism spectrum disorder, borderline personality disorder, schizophrenia, delusional disorder, paranoid personality disorder, schizoaffective disorder, clinically significant intellectual disability, or any other psychiatric comorbidity that renders the patient unsuitable for the trial according to the investigator's judgment. • 2. Has one or more first or second degree relatives with a current or previously diagnosed bipolar disorder, psychotic disorder or other mood disorder (including MDD) with psychotic features. • 3. Is in the judgement of a trial psychiatrist or registered psychologist, at significant risk for suicide based on history, psychiatric assessment, and evaluation of suicidal ideation and suicidal behaviour based on the Columbia-Suicide Severity Rating Scale (C-SSRS). • 4. Has taken anti-depressive medication within 14 days or 5 half-lives (whichever is longer) prior to dosing (exception: within the last 5 weeks in the case of fluoxetine). • 5.

## COc1ccc2[nH]cc(CCN(C)C)c2c1 [5-MeO-DMT]
  Reported adverse events: mild, short-lasting and resolved spontaneously
  Standard criteria for MADRS response (>=50% improvement) and remission (total <=10): fulfilled
6 mg then 12 mg
  Tolerability of inhalation procedure / regimen: well tolerated with no inhalation-related adverse events; also recorded: well tolerated
2 h
  MADRS apparent sadness improvement: 5 and 4
  MADRS apparent sadness score: 0
  MADRS concentration difficulties improvement: 0 and 4
  MADRS concentration difficulties score: 0
  MADRS inability to feel improvement: 3 and 4
  MADRS inability to feel score: 0
  MADRS inner tension improvement: 5 and 4
  MADRS inner tension score: 0
  MADRS lassitude improvement: 3 and 4
  MADRS lassitude score: 0
  MADRS pessimistic thoughts improvement: 4
  MADRS pessimistic thoughts score: 0
  MADRS reduced appetite improvement: 0 and 6
  MADRS reduced appetite score: 0
  MADRS reduced sleep improvement: 0
  MADRS reported sadness improvement: 4 and 5
  MADRS reported sadness score: 0
  MADRS suicidal thoughts improvement: 0 and 1
  MADRS suicidal thoughts score: 0
2 h (baseline carried forward)
  MADRS reduced sleep score: 5
Day 1
  BPRS anxiety improvement: 6 and 5
  BPRS anxiety score: 1
  BPRS blunted affect improvement: 0 and 4
  BPRS blunted affect score: 1
  BPRS conceptual disorganization improvement: 0 and 3
  BPRS conceptual disorganization score: 1
  BPRS depressive mood improvement: 5 and 4
  BPRS depressive mood score: 1
  BPRS disorientation improvement: 0
  BPRS disorientation score: 1
  BPRS emotional withdrawal improvement: 4 and 5
  BPRS emotional withdrawal score: 1
  BPRS excitement improvement: 1 and 0
  BPRS excitement score: 1
  BPRS grandiosity improvement: 0
  BPRS grandiosity score: 1
  BPRS guilt feelings improvement: 5
  BPRS guilt feelings score: 1
  BPRS hallucinatory behaviour improvement: 0
  BPRS hallucinatory behaviour score: 1
  BPRS hostility improvement: 0 and 3
  BPRS hostility score: 1
  BPRS mannerisms and posturing improvement: 0
  BPRS mannerisms and posturing score: 1
  BPRS motor retardation improvement: 0 and 2
  BPRS motor retardation score: 1
  BPRS somatic concern improvement: 5 and 0
  BPRS somatic concern score: 1
  BPRS suspiciousness improvement: 0
  BPRS suspiciousness score: 1
  BPRS tension improvement: 5 and 3
  BPRS tension score: 1
  BPRS uncooperativeness improvement: 0
  BPRS uncooperativeness score: 1
  BPRS unusual thought content improvement: 0
  BPRS unusual thought content score: 1
  MADRS apparent sadness improvement: 5 and 4
  MADRS apparent sadness score: 0
  MADRS concentration difficulties improvement: 0 and 4
  MADRS concentration difficulties score: 0
  MADRS inability to feel improvement: 3 and 4
  MADRS inability to feel score: 0
  MADRS inner tension improvement: 5 and 4
  MADRS inner tension score: 0
  MADRS lassitude improvement: 3 and 4
  MADRS lassitude score: 0
  MADRS pessimistic thoughts improvement: 4
  MADRS pessimistic thoughts score: 0
  MADRS reduced appetite improvement: 0 and 6
  MADRS reduced appetite score: 0
  MADRS reduced sleep improvement: 5
  MADRS reduced sleep score: 0
  MADRS reported sadness improvement: 4 and 5
  MADRS reported sadness score: 0
  MADRS suicidal thoughts improvement: 0 and 1
  MADRS suicidal thoughts score: 0
Day 7
  BIMF TOTAL score: 105 and 104
  BIMF item 1 (I am a good mother) score: 6 and 5
  BIMF item 2 (I feel rested) score: 2 and 4
  BIMF item 3 (comfortable with the way I've chosen to feed my baby) score: 6
  BIMF item 4 (My baby and I understand each other) score: 5 and 6
  BIMF item 5 (able to relax and enjoy time with my baby) score: 6
  BIMF item 6 (people I can trust to care for my baby when I need a break) score: 6 and 5
  BIMF item 8 (getting enough adult interaction) score: 6 and 4
  BIMF item 9 (getting enough encouragement from other people) score: 6 and 5
  BIMF item 10 (I trust my own feelings (instincts)) score: 6
  BIMF item 11 (a little time each week to do something for myself) score: 6 and 4
  BIMF item 12 (taking good care of my baby's physical needs) score: 6
  BIMF item 13 (taking good care of my physical needs) score: 5
  BIMF item 14 (good decisions about my baby's health and well being) score: 6
  BIMF item 15 (My baby and I are getting into a routine) score: 6 and 5
  BIMF item 16 (I worry about how other people judge me) score: 5
  BIMF item 17 (able to take care of my baby and my other responsibilities) score: 5
  BIMF item 18 (Anxiety or worry often interferes with my mothering ability) score: 5
  BIMF item 19 (getting better at taking care of my baby) score: 1 and 6
  BIMF item 20 (satisfied with the job I am doing as a new mother) score: 5
  BIMF total score improvement, percent: 14% and over 40%
  BPRS anxiety improvement: 6 and 5
  BPRS anxiety score: 1
  BPRS blunted affect improvement: 0 and 4
  BPRS blunted affect score: 1
  BPRS conceptual disorganization improvement: 0 and 3
  BPRS conceptual disorganization score: 1
  BPRS depressive mood improvement: 5 and 4
  BPRS depressive mood score: 1
  BPRS disorientation improvement: 0
  BPRS disorientation score: 1
  BPRS emotional withdrawal improvement: 4 and 5
  BPRS emotional withdrawal score: 1
  BPRS excitement improvement: 1 and 0
  BPRS excitement score: 1
  BPRS grandiosity improvement: 0
  BPRS grandiosity score: 1
  BPRS guilt feelings improvement: 5
  BPRS guilt feelings score: 1
  BPRS hallucinatory behaviour improvement: 0
  BPRS hallucinatory behaviour score: 1
  BPRS hostility improvement: 0 and 3
  BPRS hostility score: 1
  BPRS mannerisms and posturing improvement: 0
  BPRS mannerisms and posturing score: 1
  BPRS motor retardation improvement: 0 and 2
  BPRS motor retardation score: 1
  BPRS somatic concern improvement: 5 and 0
  BPRS somatic concern score: 1
  BPRS suspiciousness improvement: 0
  BPRS suspiciousness score: 1
  BPRS tension improvement: 5 and 3
  BPRS tension score: 1
  BPRS uncooperativeness improvement: 0
  BPRS uncooperativeness score: 1
  BPRS unusual thought content improvement: 0
  BPRS unusual thought content score: 1
  MADRS apparent sadness improvement: 5 and 4
  MADRS apparent sadness score: 0
  MADRS concentration difficulties improvement: 0 and 4
  MADRS concentration difficulties score: 0
  MADRS inability to feel improvement: 3 and 4
  MADRS inability to feel score: 0
  MADRS inner tension improvement: 4
  MADRS inner tension score: 1 and 0
  MADRS lassitude improvement: 3 and 4
  MADRS lassitude score: 0
  MADRS pessimistic thoughts improvement: 4
  MADRS pessimistic thoughts score: 0
  MADRS reduced appetite improvement: 0 and 6
  MADRS reduced appetite score: 0
  MADRS reduced sleep improvement: 5
  MADRS reduced sleep score: 0
  MADRS reported sadness improvement: 4 and 5
  MADRS reported sadness score: 0
  MADRS suicidal thoughts improvement: 0 and 1
  MADRS suicidal thoughts score: 0
  Total MADRS improvement: 41
  Total MADRS score: 0
Day 7 vs Day 0
  BIMF TOTAL Δ: 13 and 45
  BIMF domain Adjustment Δ: 1 and 9
  BIMF domain Infant Care Δ: 0
  BIMF domain Management Δ: 5 and 13
  BIMF domain Mother-Child Interaction Δ: 2 and 7
  BIMF domain Psychological Well-being Δ: 9 and 27
  BIMF domain Self-Care Δ: 4 and 10
  BIMF domain Social Support % Improvement: approx. 27% and 27%
  BIMF domain Social Support Δ: 1 and 3
  BIMF item 1 (I am a good mother) Δ: 0 and 1
  BIMF item 2 (I feel rested) Δ: 2 and 4
  BIMF item 3 (comfortable with the way I've chosen to feed my baby) Δ: 0 and 1
  BIMF item 4 (My baby and I understand each other) Δ: 0 and 1
  BIMF item 5 (able to relax and enjoy time with my baby) Δ: 1 and 5
  BIMF item 6 (people I can trust to care for my baby when I need a break) Δ: 0
  BIMF item 8 (getting enough adult interaction) Δ: 0 and 1
  BIMF item 9 (getting enough encouragement from other people) Δ: 1 and 2
  BIMF item 10 (I trust my own feelings (instincts)) Δ: 1 and 2
  BIMF item 11 (a little time each week to do something for myself) Δ: 1 and 2
  BIMF item 12 (taking good care of my baby's physical needs) Δ: 0
  BIMF item 13 (taking good care of my physical needs) Δ: 1 and 4
  BIMF item 14 (good decisions about my baby's health and well being) Δ: 0
  BIMF item 15 (My baby and I are getting into a routine) Δ: 1
  BIMF item 16 (I worry about how other people judge me) Δ: 2 and 4
  BIMF item 17 (able to take care of my baby and my other responsibilities) Δ: 0 and 3
  BIMF item 18 (Anxiety or worry often interferes with my mothering ability) Δ: 3 and 5
  BIMF item 19 (getting better at taking care of my baby) Δ: 1 and 6
  BIMF item 20 (satisfied with the job I am doing as a new mother) Δ: −1 and 4
discharge
  BPRS anxiety improvement: 6 and 5
  BPRS anxiety score: 1
  BPRS blunted affect improvement: 0 and 4
  BPRS blunted affect score: 1
  BPRS conceptual disorganization improvement: 0 and 3
  BPRS conceptual disorganization score: 1
  BPRS depressive mood improvement: 5 and 4
  BPRS depressive mood score: 1
  BPRS disorientation improvement: 0
  BPRS disorientation score: 1
  BPRS emotional withdrawal improvement: 4 and 5
  BPRS emotional withdrawal score: 1
  BPRS excitement improvement: 1 and 0
  BPRS excitement score: 1
  BPRS grandiosity improvement: 0
  BPRS grandiosity score: 1
  BPRS guilt feelings improvement: 5
  BPRS guilt feelings score: 1
  BPRS hallucinatory behaviour improvement: 0
  BPRS hallucinatory behaviour score: 1
  BPRS hostility improvement: 0 and 3
  BPRS hostility score: 1
  BPRS mannerisms and posturing improvement: 0
  BPRS mannerisms and posturing score: 1
  BPRS motor retardation improvement: 0 and 2
  BPRS motor retardation score: 1
  BPRS somatic concern improvement: 5 and 0
  BPRS somatic concern score: 1
  BPRS suspiciousness improvement: 0
  BPRS suspiciousness score: 1
  BPRS tension improvement: 3
  BPRS tension score: 1
  BPRS uncooperativeness improvement: 0
  BPRS uncooperativeness score: 1
  BPRS unusual thought content improvement: 0
  BPRS unusual thought content score: 1
